In ChEMBL document CHEMBL1154917, “Flavanone and diphenylpropane glycosides and glycosidic acyl esters from Viscum articulatum” (J Nat Prod, 2010):
pIC50: −log10 of the molar value.

Legend:
[1] = test system: Radical scavenging activity; experiment: Antioxidant activity assessed as DPPH radical scavenging activity after 30 mins; assay type: functional
[2] = Cytotoxicity against mouse RAW264.7 cells assessed as cell viability at 1 to 20 uM after 24 hrs by MTT assay relative to control; assay type: cell-based; details: read-out: Activity
RAW264.7 = experiment: Antiinflammatory activity against mouse RAW264.7 cells assessed as Inhibition of LPS-induced nitric oxide production after 24 hrs by ELISA; assay type: functional, cell-based; details: RAW264.7, 24 h

`O=C1C[C@@H](c2ccccc2)Oc2cc(O[C@@H]3O[C@H](CO)[C@@H](O)[C@H](O)[C@H]3O)cc(O)c21` showed an ED50 [1] of over 100 µM, a viability at 24 h, up to 20 µM [2] of 74.5% and a pIC50 (RAW264.7) of 4.72.

Work on `COc1cc([C@@H]2CC(=O)c3c(O)cc(O[C@@H]4O[C@H](CO)[C@@H](O)[C@H](O)[C@H]4O)cc3O2)ccc1O` yielded an ED50 [1] of 100 µM, a viability at 24 h, up to 20 µM [2] of 88.7% and a pIC50 (RAW264.7) of 4.63.

In the case of `COc1cc(CCCc2c(OC)cc(O)c(OC)c2OC)ccc1O[C@@H]1O[C@H](CO)[C@@H](O)[C@H](O)[C@H]1O`, the ED50 [1] was over 100 µM, the viability at 24 h, up to 20 µM [2] was 77% and the pIC50 (RAW264.7) was 4.52.

For `O=C1C[C@@H](c2ccc(O)c(O)c2)Oc2cc(O[C@@H]3O[C@H](CO)[C@@H](O)[C@H](O)[C@H]3O)cc(O)c21`, the ED50 [1] was 63.3 µM, the viability at 24 h, up to 20 µM [2] was 100% and the pIC50 (RAW264.7) was 4.39.

`Cc1c(C)c2c(c(C)c1O)CC[C@@](C)(CCC[C@H](C)CCC[C@H](C)CCCC(C)C)O2` gave an ED50 [1] of 28.4 µM.

For `O=C1C[C@@H](c2ccc(O)cc2)Oc2cc(O[C@@H]3O[C@H](CO)[C@@H](O)[C@H](O)[C@H]3O)cc(O)c21` [PRUNIN], the ED50 [1] was over 100 µM, the viability at 24 h, up to 20 µM [2] was 100% and the pIC50 (RAW264.7) was 4.37.

In the case of `O=c1c(O)c(-c2ccc(O)c(O)c2)oc2cc(O)cc(O)c12` [QUERCETIN], the viability at 24 h, up to 20 µM [2] was 100% and the pIC50 (RAW264.7) was 4.49.

`O=C(/C=C/c1ccccc1)O[C@H]1[C@H](Oc2cc(O)c3c(c2)O[C@H](c2ccc(O)c(O)c2)CC3=O)O[C@H](CO)[C@@H](O)[C@@H]1O` [VISARTISIDE A] gave an ED50 [1] of 37.6 µM, a viability at 24 h, up to 20 µM [2] of 100% and a pIC50 (RAW264.7) of 4.81.

In the case of `O=C(/C=C/c1ccccc1)OC[C@H]1O[C@@H](Oc2cc(O)c3c(c2)O[C@H](c2ccc(O)c(O)c2)CC3=O)[C@H](O)[C@@H](O)[C@@H]1O` [VISARTISIDE B], the ED50 [1] was 34.1 µM, the viability at 24 h, up to 20 µM [2] was 100% and the pIC50 (RAW264.7) was 4.60.

With `O=C(/C=C/c1ccccc1)OC[C@@]1(O)CO[C@@H](O[C@H]2[C@H](Oc3cc(O)c4c(c3)O[C@H](c3ccc(O)c(O)c3)CC4=O)O[C@H](CO)[C@@H](O)[C@@H]2O)[C@@H]1O` [VISARTISIDE C] the ED50 [1] was over 100 µM, the viability at 24 h, up to 20 µM [2] was 99.7% and the pIC50 (RAW264.7) was 4.83.

Work on `O=C(/C=C/c1ccccc1)OC[C@@]1(O)CO[C@@H](O[C@@H]2[C@@H](O)[C@@H](O)O[C@H](CO)[C@H]2O)[C@@H]1O` [VISARTISIDE D] yielded an ED50 [1] of over 100 µM, a viability at 24 h, up to 20 µM [2] of 80.2% and a pIC50 (RAW264.7) of 4.49.

Compound `O=C(/C=C/c1ccccc1)OC[C@@]1(O)CO[C@@H](O[C@@H]2[C@@H](O)[C@H](OCc3ccccc3)O[C@H](CO)[C@H]2O)[C@@H]1O` [VISARTISIDE E] has an ED50 [1] of over 100 µM, a viability at 24 h, up to 20 µM [2] of 88.1% and a pIC50 (RAW264.7) of 4.40.

`COc1ccc(/C=C/CO[C@@H]2O[C@H](CO)[C@@H](O)[C@H](O[C@@H]3OC[C@](O)(COC(=O)/C=C/c4ccccc4)[C@H]3O)[C@H]2O)cc1O` [VISARTISIDE F] showed an ED50 [1] of over 100 µM, a viability at 24 h, up to 20 µM [2] of 85.2% and a pIC50 (RAW264.7) of 4.56.
